Source: patent US20250186627A1, “RADIOLABELED COMPOUNDS TARGETING THE PROSTATE-SPECIFIC MEMBRANE ANTIGEN” (PROVINCIAL HEALTH SERVICES AUTHORITY, priority 2022, published 2025)
*1 amine or outer side, *2 acyl side, *3 side chain or, on linkers, in order; H or OH if unused. Where a SMILES comes first, the peptide text is derived from it. [ ]: non-standard residue; d: D form. The star is where a group is joined. ξ: configuration not given here. ξLys(Nα-CO-ξAad) = O=C(O)CCCC(NC(=O)NC(CCCCN*)C(=O)O)C(=O)O; Butanoyl(4-(4-NO2Ph)) = O=C(CCCc1ccc([N+](=O)[O-])cc1)*; DOTA = O=C(O)CN1CCN(CC(=O)O)CCN(CC(=O)*)CCN(CC(=O)O)CC1; ξAla(9-anthryl) = NC(Cc1c2ccccc2cc2ccccc12)C(=O)O; X1 = O=C(C1CCC(CN[*:1])CC1)[*:2]; ξK = NCCCCC(N)C(=O)O

Test system: NRG-mice bearing LNCaP tumors
Test: Biodistribution (and PET/SPECT imaging) in NRG-mice bearing LNCaP tumors
Type: in vivo
Settings: Avg
Experimental: LNCaP cell line was obtained from ATCC (LNCaP clone FGC, CRL-1740). It was established from a metastatic site of left supraclavicular lymph node of human prostatic adenocarcinoma. Cells were cultured in PRMI 1640 medium supplemented with 10% FBS, penicillin (100 U/mL) and streptomycin (100 μg/mL) at 37° C. in a humidified incubator containing 5% CO2. Cells grown to 80-90% confluence were then washed with sterile phosphate-buffered saline (1×PBS pH 7.4) and trypsinization. The collected cells number was counted with a Hausser Scientific (Horsham, PA) Hemacytometer. Approximately 10 million LNCaP cells were inoculated into the left dorsal flank of immunocomprised NRG mice. The tumours were allowed to grow for 4-6 weeks and used for imaging and biodistribution studies when a volume of 200-600 mm^3 was reached.
PET imaging experiments were conducted using Siemens Inveon micro PET/CT scanner. SPECT imaging experiments were conducted using an MILabs micro SPECT/CT scanner. Each tumor bearing mouse was injected 4-6 MBq of ^68Ga or 18.5 MBq of ^177Lu labeled tracer through the tail vein under anesthesia (2% isoflurane in oxygen). The mice were allowed to recover and roam freely in their cage. At pre-defined time point, the mice were sedated again with 2% isoflurane in oxygen inhalation and positioned in the scanner. A 10-min CT scan was conducted first for localization and attenuation correction after segmentation for reconstructing the PET or SPECT images. Then, a 10-min static PET imaging or a one hour (30 min×2 frames) of static SPECT scan was performed to determined uptake in tumor and other organs. The mice were kept warm by a heating pad during acquisition.
For biodistribution studies, the mice were injected with the radiotracer as described above. The mice were anesthetized with 2% isoflurane inhalation, and euthanized by CO2 inhalation. Blood was withdrawn immediately from the heart, and the organs/tissues of interest were collected. The collected organs/tissues were weighed and counted using a Perkin Elmer (Waltham, MA) Wizard2 2480 gamma counter. The uptake in each organ/tissue was normalized to the injected dose (radioactivity) using a standard curve, and expressed as the percentage of the injected dose per gram of tissue (% ID/g).

SMILES: COc1ccc(CCCC(=O)NCC(=O)NC(CCCCNC(=O)CN2CCN(CC(=O)[O-])CCN(CC(=O)[O-])CCN(CC(=O)[O-])CC2)CC(=O)NCC2CCC(C(=O)NC(Cc3c4ccccc4cc4ccccc34)C(=O)NCCCCC(NC(=O)NC(CCCC(=O)O)C(=O)O)C(=O)O)CC2)cc1.[68Ga+3] (stereo not shown) [^68Ga-CCZ02015]
- Biodistribution: Adrenal gland (1 h p.i.): 3.28 % ID/g
- Biodistribution: Blood (1 h p.i.): 15.78 % ID/g
- Biodistribution: Bone (1 h p.i.): 0.92 % ID/g
- Biodistribution: Brain (1 h p.i.): 0.25 % ID/g
- Biodistribution: Fat (1 h p.i.): 1.52 % ID/g
- Biodistribution: Heart (1 h p.i.): 3.19 % ID/g
- Biodistribution: Intestine (1 h p.i.): 1.46 % ID/g
- Biodistribution: LNCaP tumor (1 h p.i.): 11.16 % ID/g
- Biodistribution: Liver (1 h p.i.): 2.98 % ID/g
- Biodistribution: Lungs (1 h p.i.): 5.90 % ID/g
- Biodistribution: Muscle (1 h p.i.): 1.07 % ID/g
- Biodistribution: Pancreas (1 h p.i.): 1.34 % ID/g
- Biodistribution: Salivary gland (1 h p.i.): 2.19 % ID/g
- Biodistribution: Seminal gland (1 h p.i.): 0.72 % ID/g
- Biodistribution: Spleen (1 h p.i.): 1.28 % ID/g
- Biodistribution: Stomach (1 h p.i.): 0.46 % ID/g
- Biodistribution: Testes (1 h p.i.): 1.77 % ID/g
- Biodistribution: Thyroid (1 h p.i.): 2.54 % ID/g
- Biodistribution: Urine (1 h p.i.): 177.03 % ID/g
- Biodistribution: kidney (1 h p.i.): 11.93 % ID/g
- Biodistribution: Adrenal gland (3 h p.i.): 3.36 % ID/g
- Biodistribution: Blood (3 h p.i.): 10.81 % ID/g
- Biodistribution: Bone (3 h p.i.): 1.20 % ID/g
- Biodistribution: Brain (3 h p.i.): 0.19 % ID/g
- Biodistribution: Fat (3 h p.i.): 1.04 % ID/g
- Biodistribution: Heart (3 h p.i.): 2.55 % ID/g
- Biodistribution: Intestine (3 h p.i.): 1.17 % ID/g
- Biodistribution: LNCaP tumor (3 h p.i.): 22.60 % ID/g
- Biodistribution: Liver (3 h p.i.): 2.13 % ID/g
- Biodistribution: Lungs (3 h p.i.): 4.65 % ID/g
- Biodistribution: Muscle (3 h p.i.): 1.13 % ID/g
- Biodistribution: Pancreas (3 h p.i.): 1.10 % ID/g
- Biodistribution: Salivary gland (3 h p.i.): 2.18 % ID/g
- Biodistribution: Seminal gland (3 h p.i.): 1.63 % ID/g
- Biodistribution: Spleen (3 h p.i.): 1.01 % ID/g
- Biodistribution: Stomach (3 h p.i.): 0.84 % ID/g
- Biodistribution: Testes (3 h p.i.): 2.07 % ID/g
- Biodistribution: Thyroid (3 h p.i.): 2.09 % ID/g
- Biodistribution: Urine (3 h p.i.): 84.38 % ID/g
- Biodistribution: kidney (3 h p.i.): 10.94 % ID/g

SMILES: O=C([O-])CN1CCN(CC(=O)[O-])CCN(CC(=O)NCCCCC(NC(=O)CNC(=O)CCCc2ccc([N+](=O)[O-])cc2)C(=O)NCC(=O)NCC2CCC(C(=O)NC(Cc3c4ccccc4cc4ccccc34)C(=O)NCCCCC(NC(=O)NC(CCCC(=O)O)C(=O)O)C(=O)O)CC2)CCN(CC(=O)[O-])CC1.[225Ac+3] (stereo not shown) [^225Ac-CCZ02017] ({Butanoyl(4-(4-NO2Ph))}-G[ξK](DOTA)G[X1][ξAla(9-anthryl)]-{ξLys(Nα-CO-ξAad)})
- Biodistribution: Adrenal gland (3 h p.i.): 3.61 % ID/g
- Biodistribution: Blood (3 h p.i.): 9.83 % ID/g
- Biodistribution: Bone (3 h p.i.): 1.24 % ID/g
- Biodistribution: Brain (3 h p.i.): 0.19 % ID/g
- Biodistribution: Fat (3 h p.i.): 1.96 % ID/g
- Biodistribution: Heart (3 h p.i.): 2.27 % ID/g
- Biodistribution: Intestine (3 h p.i.): 1.02 % ID/g
- Biodistribution: LNCaP tumor (3 h p.i.): 23.63 % ID/g
- Biodistribution: Lacrimal gland (3 h p.i.): 0.92 % ID/g
- Biodistribution: Liver (3 h p.i.): 1.90 % ID/g
- Biodistribution: Lungs (3 h p.i.): 4.93 % ID/g
- Biodistribution: Muscle (3 h p.i.): 0.80 % ID/g
- Biodistribution: Pancreas (3 h p.i.): 1.14 % ID/g
- Biodistribution: Salivary gland (3 h p.i.): 3.37 % ID/g
- Biodistribution: Seminal gland (3 h p.i.): 2.26 % ID/g
- Biodistribution: Spleen (3 h p.i.): 1.15 % ID/g
- Biodistribution: Stomach (3 h p.i.): 0.47 % ID/g
- Biodistribution: Testes (3 h p.i.): 2.73 % ID/g
- Biodistribution: Thyroid (3 h p.i.): 1.72 % ID/g
- Biodistribution: Urine (3 h p.i.): 142.80 % ID/g
- Biodistribution: kidney (3 h p.i.): 14.29 % ID/g
- Biodistribution: Adrenal gland (24 h p.i.): 0.59 % ID/g
- Biodistribution: Blood (24 h p.i.): 0.28 % ID/g
- Biodistribution: Bone (24 h p.i.): 0.30 % ID/g
- Biodistribution: Brain (24 h p.i.): 0.03 % ID/g
- Biodistribution: Fat (24 h p.i.): 0.13 % ID/g
- Biodistribution: Heart (24 h p.i.): 0.25 % ID/g
- Biodistribution: Intestine (24 h p.i.): 0.15 % ID/g
- Biodistribution: LNCaP tumor (24 h p.i.): 42.31 % ID/g
- Biodistribution: Lacrimal gland (24 h p.i.): 0.32 % ID/g
- Biodistribution: Liver (24 h p.i.): 0.68 % ID/g
- Biodistribution: Lungs (24 h p.i.): 0.58 % ID/g
- Biodistribution: Muscle (24 h p.i.): 0.06 % ID/g
- Biodistribution: Pancreas (24 h p.i.): 0.09 % ID/g
- Biodistribution: Salivary gland (24 h p.i.): 0.35 % ID/g
- Biodistribution: Seminal gland (24 h p.i.): 0.15 % ID/g
- Biodistribution: Spleen (24 h p.i.): 0.50 % ID/g
- Biodistribution: Stomach (24 h p.i.): 0.20 % ID/g
- Biodistribution: Testes (24 h p.i.): 0.38 % ID/g
- Biodistribution: Thyroid (24 h p.i.): 0.33 % ID/g
- Biodistribution: Urine (24 h p.i.): 4.30 % ID/g
- Biodistribution: kidney (24 h p.i.): 6.87 % ID/g
- Biodistribution: Adrenal gland (72 h p.i.): 24.11 % ID/g
- Biodistribution: Blood (72 h p.i.): 0.01 % ID/g
- Biodistribution: Bone (72 h p.i.): 0.34 % ID/g
- Biodistribution: Brain (72 h p.i.): 0.02 % ID/g
- Biodistribution: Fat (72 h p.i.): 0.40 % ID/g
- Biodistribution: Heart (72 h p.i.): 0.16 % ID/g
- Biodistribution: Intestine (72 h p.i.): 0.06 % ID/g
- Biodistribution: LNCaP tumor (72 h p.i.): 54.12 % ID/g
- Biodistribution: Lacrimal gland (72 h p.i.): 1.39 % ID/g
- Biodistribution: Liver (72 h p.i.): 0.51 % ID/g
- Biodistribution: Lungs (72 h p.i.): 0.19 % ID/g
- Biodistribution: Muscle (72 h p.i.): 0.04 % ID/g
- Biodistribution: Pancreas (72 h p.i.): 0.09 % ID/g
- Biodistribution: Salivary gland (72 h p.i.): 0.33 % ID/g
- Biodistribution: Seminal gland (72 h p.i.): 0.03 % ID/g
- Biodistribution: Spleen (72 h p.i.): 0.93 % ID/g
- Biodistribution: Stomach (72 h p.i.): 0.06 % ID/g
- Biodistribution: Testes (72 h p.i.): 0.33 % ID/g
- Biodistribution: Thyroid (72 h p.i.): 0.22 % ID/g
- Biodistribution: Urine (72 h p.i.): 1.33 % ID/g
- Biodistribution: kidney (72 h p.i.): 3.62 % ID/g
- Biodistribution: Adrenal gland (144 h p.i.): 0.31 % ID/g
- Biodistribution: Blood (144 h p.i.): 0.01 % ID/g
- Biodistribution: Bone (144 h p.i.): 0.23 % ID/g
- Biodistribution: Brain (144 h p.i.): 0.02 % ID/g
- Biodistribution: Fat (144 h p.i.): 0.07 % ID/g
- Biodistribution: Heart (144 h p.i.): 0.14 % ID/g
- Biodistribution: Intestine (144 h p.i.): 0.06 % ID/g
- Biodistribution: LNCaP tumor (144 h p.i.): 71.25 % ID/g
- Biodistribution: Lacrimal gland (144 h p.i.): 0.65 % ID/g
- Biodistribution: Liver (144 h p.i.): 0.71 % ID/g
- Biodistribution: Lungs (144 h p.i.): 0.13 % ID/g
- Biodistribution: Muscle (144 h p.i.): 0.02 % ID/g
- Biodistribution: Pancreas (144 h p.i.): 0.14 % ID/g
- Biodistribution: Salivary gland (144 h p.i.): 0.21 % ID/g
- Biodistribution: Seminal gland (144 h p.i.): 0.04 % ID/g
- Biodistribution: Spleen (144 h p.i.): 0.65 % ID/g
- Biodistribution: Stomach (144 h p.i.): 0.05 % ID/g
- Biodistribution: Testes (144 h p.i.): 0.29 % ID/g
- Biodistribution: Thyroid (144 h p.i.): 0.23 % ID/g
- Biodistribution: Urine (144 h p.i.): 0.55 % ID/g
- Biodistribution: kidney (144 h p.i.): 1.95 % ID/g
- Biodistribution: Adrenal gland (240 h p.i.): 0.53 % ID/g
- Biodistribution: Blood (240 h p.i.): 0.02 % ID/g
- Biodistribution: Bone (240 h p.i.): 0.57 % ID/g
- Biodistribution: Brain (240 h p.i.): 0.02 % ID/g
- Biodistribution: Fat (240 h p.i.): 0.13 % ID/g
- Biodistribution: Heart (240 h p.i.): 0.16 % ID/g
- Biodistribution: Intestine (240 h p.i.): 0.06 % ID/g
- Biodistribution: LNCaP tumor (240 h p.i.): 123.67 % ID/g
- Biodistribution: Lacrimal gland (240 h p.i.): 0.19 % ID/g
- Biodistribution: Liver (240 h p.i.): 1.49 % ID/g
- Biodistribution: Lungs (240 h p.i.): 0.18 % ID/g
- Biodistribution: Muscle (240 h p.i.): 0.08 % ID/g
- Biodistribution: Pancreas (240 h p.i.): 0.06 % ID/g
- Biodistribution: Salivary gland (240 h p.i.): 0.32 % ID/g
- Biodistribution: Seminal gland (240 h p.i.): 0.06 % ID/g
- Biodistribution: Spleen (240 h p.i.): 1.14 % ID/g
- Biodistribution: Stomach (240 h p.i.): 0.08 % ID/g
- Biodistribution: Testes (240 h p.i.): 0.27 % ID/g
- Biodistribution: Thyroid (240 h p.i.): 0.23 % ID/g
- Biodistribution: Urine (240 h p.i.): 0.41 % ID/g
- Biodistribution: kidney (240 h p.i.): 2.24 % ID/g
